PMC9407205, “Neuroprotective Potential of Thinned Peaches Extracts Obtained by Pressurized Liquid Extraction after Different Drying Processes” (Foods, 2022)
Marks after values point to notes of the source that are not given here.

Tests used:
[1] = ROS scavenging capacity, oxygen radical absorbance capacity (ORAC) assay; conditions: PLE extracts under optimized conditions (50% ethanol, 180 °C) and reference standard
Protocol: The ROS scavenging capacity was measured using the oxygen radical absorbance capacity (ORAC) assay described by Ou et al. (2001). Briefly, the reaction mixture contained 100 μL of samples at different concentrations in 10% ethanol (v/v), 100 μL of 590 mmol/L AAPH in 30 mmol/L phosphate buffer (pH 7.5), 100 μL of phosphate buffer and 25 μL of 10 μmol/L fluorescein in buffer. The absorbance was read at the 485 nm excitation spectrum and 528 nm emission spectrum, and recorded at 5 min intervals for 60 min at 37 °C. Ascorbic acid was used as the reference standard and 10% ethanol (v/v) was used as the control. The ROS scavenging capacity was calculated as described by Sánchez-Martínez et al. (2021).

[2] = RNS scavenging capacity, nitric oxide (NO) radical scavenging assay; conditions: at the maximum concentration tested, 0.8 mg/mL; PLE extracts under optimized conditions and ascorbic acid
Protocol: The RNS scavenging capacity was estimated by referring to the nitric oxide (NO) radical scavenging assay described by Ho et al. (2010), with some modifications. In brief, 100 μL of the thinned peach extracts in 25% ethanol (v/v) was mixed with 50 μL of 5 mM sodium nitroprusside dehydrate in buffer (30 mmol/L phosphate buffer at pH 7.5) using a transparent 96-well plate. The mixtures were placed under white light at room temperature for 60 min. Afterwards, 100 μL of Griess reagent (500 mg sulphanilamide, 50 mg naphthylethylene diamine dihydrochloride and 1.25 mL of phosphoric acid in 48.5 mL of H2O) was added to each well. The mixtures were allowed to stand for 5 min and the absorbance was read at 546 nm. Ascorbic acid was used as the reference standard and the NO scavenging capacity was calculated as described by Sánchez-Martínez et al. (2021).

[3] = parallel artificial membrane permeability assay for the BBB (PAMPA-BBB); type: in vitro ADME; conditions: metabolites in the five PLE extracts, 4 h at 37 °C, pH 7.4; result in words
Protocol: The parallel artificial membrane permeability assay for the BBB assay was carried out as previously described with some modifications. Briefly, 20 mg/mL thinned peach extracts in 50% ethanol (v/v) was diluted to 5 mg/mL with potassium phosphate buffer (10 mmol/L, pH 7.4). Then, 350 μL of 5 mg/mL extracts and 350 μL of buffer were added to each well of the donor plate and the acceptor plate, respectively. The filter membrane of the donor plate was coated with 5 µL of BBB solution. Afterwards, the whole plate was incubated in the dark for 4 h at 37 °C. After incubation, 300 µL of sample from each well in the donor and acceptor plates was taken out, collected and dried. The dried acceptor and donor samples were redissolved in 50 µL of ethanol and analyzed via HPLC-Q-TOF-MS/MS as described below. The permeability across the artificial BBB of each compound was calculated in terms of cm/s, as in [16].

| Structure (SMILES) | ROS (IC50) [1] | RNS, percentage of inhibition of nitrogen species with respect to the control [2] | ability to cross the artificial BBB [3] |
| --- | --- | --- | --- |
| O=C1O[C@H]([C@@H](O)CO)C(O)=C1O [Ascorbic acid] | 3.3 ± 0.6 ^e µg/mL | 83.8 ± 4 ^a % | – |
| Cc1cc(=O)oc2c(O)c(O)ccc12 [4-methyldaphnetin, 4-Methyldaphnetin] | – | – | could cross the BBB |
| CCCCCCCC(O)/C=C\C(O)CCC(O)CCCC(=O)O (stereo not shown) [(9Z)-5,8,11-Trihydroxyoctadec-9-enoic acid] | – | – | could cross the BBB |
| CC(=O)c1ccc(O)c(O)c1 [3,4-dihydroxyacetophenone, 3,4-Dihydroxyacetophenone] | – | – | could cross the BBB |
| COc1ccc(/C=C/C(=O)O)cc1O [isoferulic acid, Isoferulic acid] | – | – | could cross the BBB |
| CC1(C)CC[C@]2(C(=O)O)CC[C@]3(C)C(=CCC4[C@@]5(C)C[C@@H](O)[C@H](O)[C@](C)(CO)C5CC[C@]43C)[C@@H]2[C@@H]1O (stereo partly drawn) [triterpenoid 3, (1S,4aR,6aS,6bR,9S,10R,11R,12aR,14bS)-1,10,11-trihydroxy-9-(hydroxymethyl)-2,2,6a,6b,9,12a-hexamethyl-1,3,4,5,6,6a,7,8,8a,10,11,12,13,14b-tetradecahydropicene-4a-carboxylic acid] | – | – | highest permeability value |
